Experimental data reported in patent US11420947B2, “(S)-n-hydroxy-2-(2-(4-methoxyphenyl)butanamido)thiazole-5-carboxamide and pharmaceutically acceptable salts thereof” (TRANSLATIONAL DRUG DEVELOPMENT, LLC, priority 2018, dated 2022).

Legend:
[1] = Tumor uptake and retention (FIG. 2); assay type: in vivo
Excerpt: Volume of distribution is one of the most important pharmacokinetic properties of a drug candidate and for an anticancer drug can result in increased drug distribution to the tumor.

[2] = target: T1, HDAC9 (Homo sapiens, UniProt Q9UKV0); assay: Inhibition of HDAC enzymes, 12-point concentration-response; assay type: biochemical
T1 construct: purchased BPS 50009
T1 sequence (Q9UKV0 1-1066 isoform Q9UKV0-5): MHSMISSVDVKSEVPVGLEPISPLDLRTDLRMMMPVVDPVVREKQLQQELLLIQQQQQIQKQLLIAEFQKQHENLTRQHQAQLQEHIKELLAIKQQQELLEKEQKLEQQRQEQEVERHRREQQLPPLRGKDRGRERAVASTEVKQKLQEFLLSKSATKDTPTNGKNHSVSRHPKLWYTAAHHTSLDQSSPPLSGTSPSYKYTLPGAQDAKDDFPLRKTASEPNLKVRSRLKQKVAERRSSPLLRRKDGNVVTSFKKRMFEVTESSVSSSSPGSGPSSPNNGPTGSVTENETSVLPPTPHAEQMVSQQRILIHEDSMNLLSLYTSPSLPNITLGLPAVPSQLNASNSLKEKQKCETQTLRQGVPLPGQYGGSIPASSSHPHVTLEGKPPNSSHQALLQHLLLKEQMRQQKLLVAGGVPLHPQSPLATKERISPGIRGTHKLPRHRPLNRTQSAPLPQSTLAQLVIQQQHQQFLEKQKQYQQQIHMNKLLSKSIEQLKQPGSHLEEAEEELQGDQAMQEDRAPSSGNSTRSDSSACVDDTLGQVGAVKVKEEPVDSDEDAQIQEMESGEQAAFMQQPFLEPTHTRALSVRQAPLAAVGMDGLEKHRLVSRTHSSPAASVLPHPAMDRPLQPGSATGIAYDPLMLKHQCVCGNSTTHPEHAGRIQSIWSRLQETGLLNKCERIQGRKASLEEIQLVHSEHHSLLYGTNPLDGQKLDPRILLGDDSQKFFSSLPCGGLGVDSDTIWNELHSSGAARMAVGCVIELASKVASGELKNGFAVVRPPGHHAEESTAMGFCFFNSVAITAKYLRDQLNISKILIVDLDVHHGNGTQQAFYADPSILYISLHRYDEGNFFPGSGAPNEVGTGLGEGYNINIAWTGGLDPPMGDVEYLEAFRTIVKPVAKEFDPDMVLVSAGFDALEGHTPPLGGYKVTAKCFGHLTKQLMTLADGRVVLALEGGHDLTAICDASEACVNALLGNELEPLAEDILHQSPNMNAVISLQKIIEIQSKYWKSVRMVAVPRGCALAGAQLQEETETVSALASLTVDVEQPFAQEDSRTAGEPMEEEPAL
Method: (§1) Compounds were tested in a 12-point concentration-response format against 11 HDAC enzymes as outlined in Table 2A. Test compounds were diluted in 100% DMSO using 3-fold dilution steps. The final compound concentration in the assay ranged from 100 μM to 0.565 nM or as requested. Compounds were tested in a single well for each dilution, and the final concentration of DMSO in all assays was kept at 1%. Reference compounds were tested in an identical manner.

[3] = target: T2, HDAC3 (Homo sapiens, UniProt O15379); assay: as above; assay type: biochemical; settings: for IC50: HDAC3
T2 construct: purchased BPS 50003
T2 sequence (O15379 whole entry): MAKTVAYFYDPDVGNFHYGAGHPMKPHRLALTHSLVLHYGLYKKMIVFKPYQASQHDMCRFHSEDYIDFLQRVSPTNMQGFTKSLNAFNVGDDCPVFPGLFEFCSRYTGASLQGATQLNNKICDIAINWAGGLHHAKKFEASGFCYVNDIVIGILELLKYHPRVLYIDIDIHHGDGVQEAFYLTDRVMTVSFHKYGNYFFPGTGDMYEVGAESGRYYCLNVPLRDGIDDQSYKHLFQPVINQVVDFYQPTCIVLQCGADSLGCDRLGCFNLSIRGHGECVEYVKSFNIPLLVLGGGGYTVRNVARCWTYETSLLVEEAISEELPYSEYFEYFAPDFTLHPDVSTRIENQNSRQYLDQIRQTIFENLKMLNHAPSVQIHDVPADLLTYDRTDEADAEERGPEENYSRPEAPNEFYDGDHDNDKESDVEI
T2 sequence (Q9Y618 395-489 partner limits assumed): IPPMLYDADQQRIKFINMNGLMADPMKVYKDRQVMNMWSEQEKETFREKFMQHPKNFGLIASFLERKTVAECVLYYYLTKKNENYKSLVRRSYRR
Method: as §1

Row | SMILES | tumor uptake and retention [1] | Fold (1b/1a) ([2]; ratio of IC50, HDAC9) | IC50 [3] [nM] | Fold (1b/1a) ([3]; ratio of IC50, HDAC3) | IC50 ([2]; HDAC9) [nM]
1 | CC[C@H](C(=O)Nc1ncc(C(=O)NO)s1)c1ccc(OC)cc1 [#1a, (S)—N-hydroxy-2-(2-(4-methoxyphenyl)butanamido)thiazole-5-carboxamide] | preferential and significant tumor uptake and retention | 1.1 | < 0.56 | 4.6 | –
2 | CC[C@@H](C(=O)Nc1ncc(C(=O)NO)s1)c1ccc(OC)cc1 [#1b, (R)—N-hydroxy-2-(2-(4-methoxyphenyl)butanamido)thiazole-5-carboxamide] | – | – | 2.6 | – | 210
